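96-well plates; 48 h exposure; 5 concentrations. Endpoints by linear interpolation between flanking doses. Not reached: highest tested concentration assigned. GI50 = concentration required for 50% inhibition of growth.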 Activity calls are given as the source filed them. No stated cut-off is given here; in the data, active = GI50 up to about 1.1 µM and inactive = higher.
Tests used:
Experiment in all cases: DTP human tumour cell line panel, 48 h
DLD-1 = tested on: DLD-1
A498 = tested on: A498
UO-31 = tested on: UO-31
SF-268 = tested on: SF-268
HCT-116 = tested on: HCT-116
KM-20L2 = tested on: KM-20L2
K562 = tested on: K562
A549 = tested on: A549
SK-OV-3 = tested on: SK-OV-3
SK-MEL-2 = tested on: SK-MEL-2
HCC 2998 = tested on: HCC 2998
SR = tested on: SR
SF-539 = tested on: SF-539
786-0 = tested on: 786-0
UACC-62 = tested on: UACC-62
EKVX = tested on: EKVX
HCT-15 = tested on: HCT-15
NCI-H226 = tested on: NCI-H226
NCI-H23 = tested on: NCI-H23
HOP-18 = tested on: HOP-18
RPMI-8226 = tested on: RPMI-8226
OVCAR-4 = tested on: OVCAR-4
SW-620 = tested on: SW-620
SF-295 = tested on: SF-295
SN12C = tested on: SN12C
KM12 = tested on: KM12
HL-60 = tested on: HL-60
SK-MEL-5 = tested on: SK-MEL-5
LOX IMVI = tested on: LOX IMVI
ACHN = tested on: ACHN
M19-MEL = tested on: M19-MEL
SNB-78 = tested on: SNB-78
HOP-62 = tested on: HOP-62
NCI-H522 = tested on: NCI-H522
CCRF-CEM = tested on: CCRF-CEM
OVCAR-5 = tested on: OVCAR-5
OVCAR-8 = tested on: OVCAR-8
M14 = tested on: M14
RXF 631 = tested on: RXF 631
OVCAR-3 = tested on: OVCAR-3
LXFL 529 = tested on: LXFL 529
U-251 = tested on: U-251
HT-29 = tested on: HT-29
IGROV-1 = tested on: IGROV-1
NCI-H460 = tested on: NCI-H460
TK-10 = tested on: TK-10
DMS-273 = tested on: DMS-273
SNB-19 = tested on: SNB-19
MOLT-4 = tested on: MOLT-4
HOP-92 = tested on: HOP-92
COLO 205 = tested on: COLO 205
UACC-257 = tested on: UACC-257
CAKI-1 = tested on: CAKI-1
SNB-75 = tested on: SNB-75
Malme-3M = tested on: Malme-3M
DMS-114 = tested on: DMS-114
SK-MEL-28 = tested on: SK-MEL-28
RXF 393 = tested on: RXF 393

## C[n+]1cn(CC(=O)c2ccccc2)c(C(N)=O)c1N
DLD-1
  GI50: > 100 µM (inactive)
A498
  GI50: > 100 µM (inactive)
UO-31
  GI50: > 100 µM (inactive)
SF-268
  GI50: > 100 µM (inactive)
HCT-116
  GI50: 24.2 µM (inactive)
KM-20L2
  GI50: > 100 µM (inactive)
K562
  GI50: > 10 µM (inactive)
A549
  GI50: > 100 µM (inactive)
SK-OV-3
  GI50: > 100 µM (inactive)
SK-MEL-2
  GI50: > 100 µM (inactive)
HCC 2998
  GI50: > 100 µM (inactive)
SR
  GI50: > 100 µM (inactive)
SF-539
  GI50: > 100 µM (inactive)
786-0
  GI50: 43.7 µM (inactive)
UACC-62
  GI50: > 100 µM (inactive)
EKVX
  GI50: > 100 µM (inactive)
HCT-15
  GI50: 80.7 µM
NCI-H226
  GI50: > 100 µM (inactive)
NCI-H23
  GI50: > 100 µM (inactive)
HOP-18
  GI50: > 100 µM (inactive)
RPMI-8226
  GI50: 45.1 µM (inactive)
OVCAR-4
  GI50: > 100 µM (inactive)
SW-620
  GI50: 11 µM (inactive)
SF-295
  GI50: > 100 µM (inactive)
SN12C
  GI50: > 100 µM (inactive)
KM12
  GI50: > 100 µM (inactive)
HL-60
  GI50: 0.337 µM (active)
SK-MEL-5
  GI50: 33 µM (inactive)
LOX IMVI
  GI50: > 100 µM (inactive)
ACHN
  GI50: > 100 µM (inactive)
M19-MEL
  GI50: 25.2 µM (inactive)
SNB-78
  GI50: > 100 µM (inactive)
HOP-62
  GI50: > 100 µM (inactive)
NCI-H522
  GI50: 77.6 µM (inactive)
CCRF-CEM
  GI50: > 100 µM (inactive)
OVCAR-5
  GI50: > 100 µM (inactive)
OVCAR-8
  GI50: > 100 µM (inactive)
M14
  GI50: > 100 µM (inactive)
RXF 631
  GI50: > 100 µM (inactive)
OVCAR-3
  GI50: > 100 µM (inactive)
LXFL 529
  GI50: 61.7 µM (inactive)
U-251
  GI50: 94.6 µM (inactive)
HT-29
  GI50: > 100 µM (inactive)
IGROV-1
  GI50: > 100 µM (inactive)
NCI-H460
  GI50: > 100 µM (inactive)
TK-10
  GI50: > 100 µM (inactive)
DMS-273
  GI50: > 100 µM (inactive)
SNB-19
  GI50: > 100 µM (inactive)
MOLT-4
  GI50: > 100 µM (inactive)
HOP-92
  GI50: > 100 µM (inactive)
COLO 205
  GI50: 41.4 µM (inactive)
UACC-257
  GI50: > 100 µM (inactive)
CAKI-1
  GI50: > 100 µM (inactive)
SNB-75
  GI50: > 100 µM (inactive)
Malme-3M
  GI50: > 100 µM (inactive)
DMS-114
  GI50: 25 µM (inactive)
SK-MEL-28
  GI50: > 100 µM (inactive)

## CC(=O)Nc1ccc(SC#N)c2c(NC(C)=O)cccc12
DLD-1
  GI50: 71.6 µM (inactive)
A498
  GI50: > 100 µM (inactive)
UO-31
  GI50: > 95.5 µM (inactive)
SF-268
  GI50: 98.4 µM (inactive)
HCT-116
  GI50: > 86.3 µM (inactive)
KM-20L2
  GI50: > 100 µM (inactive)
K562
  GI50: 34 µM (inactive)
A549
  GI50: > 100 µM (inactive)
SK-OV-3
  GI50: > 100 µM (inactive)
SK-MEL-2
  GI50: > 100 µM (inactive)
HCC 2998
  GI50: > 100 µM (inactive)
SR
  GI50: 33.6 µM (inactive)
SF-539
  GI50: > 100 µM (inactive)
786-0
  GI50: > 100 µM (inactive)
UACC-62
  GI50: 78.3 µM (inactive)
EKVX
  GI50: > 100 µM (inactive)
HCT-15
  GI50: 53.8 µM
NCI-H226
  GI50: > 100 µM (inactive)
NCI-H23
  GI50: > 100 µM (inactive)
HOP-18
  GI50: 45.2 µM (inactive)
RPMI-8226
  GI50: 24.4 µM (inactive)
OVCAR-4
  GI50: > 92.9 µM (inactive)
SW-620
  GI50: 43.1 µM (inactive)
SF-295
  GI50: > 100 µM (inactive)
SN12C
  GI50: > 100 µM (inactive)
KM12
  GI50: > 66.8 µM (inactive)
HL-60
  GI50: 24.1 µM (inactive)
SK-MEL-5
  GI50: > 100 µM (inactive)
LOX IMVI
  GI50: 56.4 µM (inactive)
ACHN
  GI50: > 100 µM (inactive)
M19-MEL
  GI50: > 100 µM (inactive)
SNB-78
  GI50: 99.3 µM (inactive)
HOP-62
  GI50: > 100 µM (inactive)
NCI-H522
  GI50: > 47.6 µM (inactive)
CCRF-CEM
  GI50: 30.3 µM (inactive)
OVCAR-5
  GI50: > 100 µM (inactive)
OVCAR-8
  GI50: > 100 µM (inactive)
M14
  GI50: > 100 µM (inactive)
RXF 631
  GI50: > 82.8 µM (inactive)
OVCAR-3
  GI50: 89.9 µM (inactive)
LXFL 529
  GI50: 28 µM (inactive)
U-251
  GI50: > 100 µM (inactive)
HT-29
  GI50: > 100 µM (inactive)
IGROV-1
  GI50: > 100 µM (inactive)
NCI-H460
  GI50: > 100 µM (inactive)
TK-10
  GI50: > 100 µM (inactive)
DMS-273
  GI50: > 100 µM (inactive)
SNB-19
  GI50: > 100 µM (inactive)
MOLT-4
  GI50: 28.7 µM (inactive)
HOP-92
  GI50: 50.7 µM (inactive)
COLO 205
  GI50: > 68.4 µM (inactive)
UACC-257
  GI50: > 100 µM (inactive)
RXF 393
  GI50: > 100 µM (inactive)
CAKI-1
  GI50: > 65 µM (inactive)
SNB-75
  GI50: > 100 µM (inactive)
Malme-3M
  GI50: > 100 µM (inactive)
DMS-114
  GI50: 43.1 µM (inactive)
SK-MEL-28
  GI50: 84.3 µM (inactive)

Source: ChEMBL document CHEMBL1201862, “PubChem BioAssay data set” (2004)
